From patent publication US20230364111A1 (priority 2020, published 2023)
“Also recorded” adds a separate entry of the source. Where two headings read alike, the source gives them in different places.

What was measured:
[1] = tested on: SARS-CoV-2 Wk-521 strain; experiment: SARS-CoV-2 infection assay, viral RNA in culture supernatant (VeroE6/TMPRSS2 cells); type: cell-based; conditions: for anti-SARS-CoV-2 activity: cell-based assay, VeroE6/TMPRSS2; for SARS-CoV-2 propagation in cultured cells: statement in words; for viral RNA in the culture supernatant: natural oxysterols up to 30 μM, semi-synthetic up to 15 μM; for production of viral RNA with signaling pathway inhibitors: 10 μM
[2] = tested on: VeroE6/TMPRSS2 cells
[3] = tested on: SARS-CoV-2; experiment: Time of addition assay, SARS-CoV-2 viral RNA; type: cell-based; conditions: 15 μM RDV, 15 μM CLQ, 10 μM Oxy210, 10 μM Oxy133
[4] = tested on: SARS-CoV-2; experiment: SARS-CoV-2-induced cytopathic effect (CPE) in VeroE6/TMPRSS2 cells; type: cell-based; conditions: for virus-induced CPE: 48 h post-inoculation, 10 μM RDV, 30 μM cholesterol, 30 μM 7-KC, 10 μM Oxy133, 10 μM Oxy210, MOI 0.001; for SARS-CoV-2-induced cytopathic effect (CPE): remdesivir 20 uM, 7-ketocholesterol 40 uM, 27-hydroxycholesterol 20 uM
[5] = tested on: SARS-CoV-2; type: cell-based
[6] = tested on: SARS-CoV-2 (isolate USA WA1/2020); experiment: SARS-CoV-2 infection of Calu-3 cells (dsRNA+ cells, automated microscopy); type: cell-based; conditions: Severe acute respiratory syndrome coronavirus 2, Calu-3, 48 h
Procedure: FIGS. 12A-12C depict dose-response curves for Oxy232. (FIG. 12A) Secreted viral RNA in the VeroE6 culture supernatant 24 h post-inoculation was quantified by real-time RT-PCR. Cell viability of Oxy232 treated cells evaluated with an MTT assay. (FIG. 12B) Secreted viral RNA of 3 SARS-CoV-2 strains in the VeroE6 culture supernatant 24 h post-inoculation was quantified by real-time RT-PCR. (FIG. 12C) Calu-3 (ATCC) cells were pretreated with Oxy232 for 2 hours prior to continuous infection with SARS-CoV-2 (isolate USA WA1/2020) at MOI=0.5. 48 h post-infection, cells were fixed, immune-strained, and imaged by automated microscopy for infection (dsRNA+ cells/total cell number) and cell number.
According to a previously published report (Ohashi et al., Identification of Anti-Severe Acute Respiratory Syndrome-Related Coronavirus 2 (SARS-CoV-2) Oxysterol Derivatives In Vitro. Int J Mol Sci. 2021; 22(6):3163. PMCID: PMC8003796) inventors have tested a collection of naturally occurring and semisynthetic oxysterol derivatives in a SARS-CoV-2 cell culture infection assay in VeroE6/TMPRSS2 cells. […] See, Ohashi et al., Int J Mol Sci. 2021; 22(6):3163 and Dittmar et al. Drug repurposing screens reveal cell-type-specific entry pathways and FDA-approved drugs active against SARS-Cov-2. Cell Rep. […] PMCID: PMC7985926. […] Without wishing to be bound by a theory, biological activities of oxysterols, including measures of cell viability, can heavily depend on in vitro assay conditions, such as the fetal bovine serum concentration or the duration of pretreatment with the compounds, among other factors, that may not translate to the in vivo safety of the compounds.

[7] = in vitro; conditions: African green monkey
[8] = in vitro; conditions: human
[9] = Severe acute respiratory syndrome coronavirus 2, VeroE6/TMPRSS2, 24 h, SARS-CoV-2 viral RNA in culture supernatant, 24 h post-inoculation, VeroE6/TMPRSS2 cells, read-out: IC90
[10] = Severe acute respiratory syndrome coronavirus 2, SARS-CoV-2 viral RNA in culture supernatant, 24 h post-inoculation, VeroE6/TMPRSS2 cells, read-out: IC50
[11] = MTT assay, 24 h, VeroE6/TMPRSS2 cells
[12] = SARS-CoV-2 viral RNA in culture supernatant, 24 h post-inoculation, VeroE6/TMPRSS2 cells, read-out: IC50
[13] = SARS-CoV-2 viral RNA in culture supernatant, 24 h post-inoculation, VeroE6/TMPRSS2 cells, read-out: IC90

## CC(C)CC[C@@H](O)[C@@H](C)[C@H]1CC[C@H]2[C@@H]3CC=C4C[C@@H](O)CC[C@]4(C)[C@H]3CC[C@]12C [22(R)-OHC, 22(R)-hydroxycholesterol, reference compound]
[1]; [9]
  IC90: > 30 µM
[1]; [10]
  IC50: 13.2 µM
[1]
  anti-SARS-CoV-2 activity: modest anti-SARS-CoV-2 activities
  SARS-CoV-2 propagation in cultured cells: substantially inhibited SARS-CoV-2 propagation
[2]; [11]
  CC50: > 30 µM

## CC(C)CC[C@H](O)[C@@H](C)[C@H]1CC[C@H]2[C@@H]3CC=C4C[C@@H](O)CC[C@]4(C)[C@H]3CC[C@]12C [22(S)-OHC, 22(S)-hydroxycholesterol, reference compound]
[1]; 24 h post-inoculation
  viral RNA in the culture supernatant: did not show apparent reductions in viral RNA
[1]; [9]
  IC90: > 30 µM
[1]; [10]
  IC50: > 30 µM
[2]; [11]
  CC50: > 30 µM

## CC(C)[C@@H](O)CC[C@@H](C)[C@H]1CC[C@H]2[C@@H]3CC=C4C[C@@H](O)CC[C@]4(C)[C@H]3CC[C@]12C [24(S)-OHC, 24(S)-hydroxycholesterol, reference compound]
[1]; [9]
  IC90: > 30 µM
[1]; [10]
  IC50: 1.3 µM
[1]
  anti-SARS-CoV-2 activity: modest anti-SARS-CoV-2 activities
  SARS-CoV-2 propagation in cultured cells: substantially inhibited SARS-CoV-2 propagation
[2]; [11]
  CC50: > 30 µM

## CCN(CC)CCCC(C)Nc1ccnc2cc(Cl)ccc12 (stereo not shown) [CLQ, chloroquine, reference compound]
[3]; 1 h inoculation plus 2 h
  viral RNA, compound present at entry: showed the most inhibitory effect

## CC(C)CCC[C@@H](C)[C@H]1CC[C@H]2[C@@H]3CC=C4C[C@@H](O)CC[C@]4(C)[C@H]3CC[C@]12C [Cholesterol, reference compound]
[1]; 24 h post-inoculation
  viral RNA in the culture supernatant: did not show apparent reductions in viral RNA
[1]; [9]
  IC90: > 30 µM
[1]; [10]
  IC50: > 30 µM
[4]
  virus-induced CPE: but not cholesterol, reduced the SARS-CoV-2-induced CPE
[2]; [11]
  CC50: > 30 µM

## CS(=O)(=O)c1ccc(C(=O)Nc2ccc(Cl)c(-c3ccccn3)c2)c(Cl)c1 [GDC0449, reference compound]
[1]; 24 h post-inoculation
  production of viral RNA with signaling pathway inhibitors: did not decrease the viral RNA levels; also recorded: lack of antiviral activity

## CCCCCC[C@](C)(O)[C@H]1CC[C@H]2[C@@H]3C[C@H](O)[C@H]4C[C@@H](O)CC[C@]4(C)[C@H]3CC[C@@]21C [Oxy133, (3S,5S,6S,8R,9S,10R,13S,14S,17S)-17-((S)-2-hydroxyoctan-2-yl)-10,13-dimethyl hexadecahydro-1H-cyclopentalalphenanthrene-3,6-diol]
[1]; 24 h post-inoculation
  viral RNA in the culture supernatant: did not show antiviral activity up to 15 μM
[1]; [12]
  IC50: > 15 µM
[1]; [13]
  IC90: > 15 µM
[4]
  virus-induced CPE: blocked when treated with Oxy210 but not Oxy133
[5]
  SARS-CoV-2 propagation / spread of infection (viral N protein, immunofluorescence): blocked when treated with Oxy210 but not Oxy133
[3]; 24 h
  viral RNA, compound present during the whole life cycle: but not the negative control, Oxy133, clearly reduced viral RNA levels
[3]; added 2 h post-inoculation for 21 h
  viral RNA, compound present post-entry: but not the negative control, Oxy133, clearly reduced viral RNA levels
[2]; [11]
  CC50: > 15 µM

## C[C@]12CC[C@H](O)C[C@@H]1CC[C@@H]1[C@@H]2CC[C@@]2(C)[C@H]1CC[C@@H]2[C@](C)(O)CCc1ccc(F)cc1 [Oxy186, (3S,5S,8R,9S,10S,13S,14S,17S)-17-((R)-4-(4-fluorophenyl)-2-hydroxybutan-2-yl)-10,13-dimethylhexadecahydro-1H-cyclopenta[a]phenanthren-3-ol]
[1]; 24 h post-inoculation
  viral RNA in the culture supernatant: reduced viral RNA level in a dose-dependent manner
[1]; [9]
  IC90: > 15 µM
[1]; [10]
  IC50: 7.4 µM
[1]; at 12 μM
  maximum reduction in viral RNA as compared to control: 83%
[4]; oxy8 7.5 uM, oxy16 20 uM, oxy186 20 uM, oxy210 10 uM, 48 h, VeroE6/TMPRSS2
  SARS-CoV-2-induced cytopathic effect: protected cells from cytopathic effect
[2]; [11]
  CC50: > 15 µM
[2]; MTT assay, VeroE6/TMPRSS2 cells
  cytotoxicity / cell viability: No significant cytotoxicity

## CC(C)CCC[C@@H](C)[C@H]1CC[C@H]2[C@@H]3CC=C4[C@@H](O)[C@@H](O)CC[C@]4(C)[C@H]3CC[C@]12C [Oxy 4-beta-OHC, 4beta-hydroxysterol, reference compound]
[1]; 24 h post-inoculation
  viral RNA in the culture supernatant: did not show apparent reductions in viral RNA
[1]; [12]
  IC50: > 30 µM
[1]; [13]
  IC90: > 30 µM
[2]; [11]
  CC50: > 30 µM

## CC(C)CCC[C@@H](C)[C@H]1CC[C@H]2[C@@H]3C(=O)C=C4C[C@@H](O)CC[C@]4(C)[C@H]3CC[C@]12C [Oxy 7-KC, 7-ketocholesterol, reference compound]
[1]; [9]
  IC90: > 30 µM
[1]; [10]
  IC50: 14.5 µM
[1]
  anti-SARS-CoV-2 activity: modest anti-SARS-CoV-2 activities
  SARS-CoV-2 propagation in cultured cells: substantially inhibited SARS-CoV-2 propagation
[4]
  virus-induced CPE: reduced the SARS-CoV-2-induced CPE
[4]; 48 h, VeroE6/TMPRSS2
  SARS-CoV-2-induced cytopathic effect (CPE): inhibited SARS-CoV-2-induced cytopathic effect
[5]
  SARS-CoV-2 propagation / spread of infection (viral N protein, immunofluorescence): reduced
[2]; [11]
  CC50: > 30 µM

## C[C@@H](CO)CCC[C@@H](C)[C@H]1CC[C@H]2[C@@H]3CC=C4C[C@@H](O)CC[C@]4(C)[C@H]3CC[C@]12C [Oxy 27-OHC, 27-hydroxycholesterol, reference compound]
[1]; [9]
  IC90: > 30 µM
[1]; [10]
  IC50: 3.5 µM
[1]
  anti-SARS-CoV-2 activity: modest anti-SARS-CoV-2 activities
  SARS-CoV-2 propagation in cultured cells: substantially inhibited SARS-CoV-2 propagation
[4]; 48 h, VeroE6/TMPRSS2
  SARS-CoV-2-induced cytopathic effect (CPE): inhibited SARS-CoV-2-induced cytopathic effect
[2]; [11]
  CC50: > 30 µM

## CCC(CC)COC(=O)[C@H](C)N[P@](=O)(OC[C@H]1O[C@@](C#N)(c2ccc3c(N)ncnn23)[C@H](O)[C@@H]1O)Oc1ccccc1 [RDV, remdesivir, reference compound]
[1]; Severe acute respiratory syndrome coronavirus 2, Vero C1008, read-out: IC50 (VeroE6)
  IC50: 1.5 µM
[1]; Severe acute respiratory syndrome coronavirus 2, Vero C1008, read-out: IC90 (VeroE6), SARS-CoV-2, VeroE6
  IC90: 1.5 µM
[1]; [9]
  IC90: 2.5 µM
[1]; [10]
  IC50: 1.5 µM
[6]; read-out: IC50 (Calu-3)
  IC50: 0.08 µM
[6]; read-out: IC90 (Calu-3)
  IC90: 0.16 µM
[2]; read-out: CC50 (VeroE6), VeroE6
  CC50: > 10 µM
[7]
  CC50: > 10 µM
[8]
  CC50: > 10 µM

## NC(=O)c1ccc(-c2nc(-c3ccc4c(c3)OCO4)c(-c3ccccn3)[nH]2)cc1 [SB431542, reference compound]
[1]; 24 h post-inoculation
  production of viral RNA with signaling pathway inhibitors: did not significantly inhibit the production of viral RNA; also recorded: lack of antiviral activity
